# From patent EP4356928A1, “NUCLEOSIDE DIPHOSPHATE OR DIPHOSPHONATE PRODRUGS, OR NUCLEOSIDE ANALOGUE DIPHOSPHATE OR DIPHOSPHONATE PRODRUGS” (Universität Hamburg, priority 2022, dated 2024)
# Like-named read-outs stand apart in the source and are kept apart here.
# How the values were obtained:
# HIV-1 (HE) = assay: Inhibition of HIV-1 replication in wild-type CEM/0 cell cultures; format: cell-based; settings: Human immunodeficiency virus 1, CCRF-CEM, read-out: Antiviral activity EC50 HIV-1 (HE)
# Method: (§1) All β-phosph(on)ate prodrug compounds were evaluated for their activity to inhibit the replication of HIV in HIV-1- and HIV-2-infected wild-type (CEM/0) cell cultures and in HIV-2-infected mutant thymidine kinase-deficient (CEM/TK^-) cell cultures (see Table 3).
# (§2) Antiviral activity was determined in CD4^+ T-lymphocytes: 50% effective concentration (EC50 [µM]).
# [1] = Chemical stability (hydrolysis half-life) in phosphate-buffered saline, RP-18 HPLC; format: physicochemical; settings: phosphate buffer saline (PBS, pH 7.3); read-out: Half-lives PBS (converted)
# Method: (§3) Stability tests regarding a number of differently substituted β-phosphate and β-phosphonate nucleoside prodrugs were conducted. The chemical and biological stability was tested in different media (phosphate-buffered saline PBS (pH 7.3), pig liver esterase (PLE), CEM cell extracts) and rated by determining the half-live of these compounds. The products of the respective hydrolysis were detected by analytical RP-18 HPLC.
# (§4) Results of the hydrolysis experiments in different media (PBS (pH = 7.3), PLE (pig liver esterase) in PBS, or CEM-T cell extracts) are shown in Table 2.
# (§5) Table 2: Half-lives (in hours) of the β-phosph(on)ate prodrug compounds of the invention in phosphate buffer saline (PBS, pH 7.3), PLE (100 units/mL pig liver esterase in PBS) and CEM/0 cell extracts. n.d. = not determined.
# [2] = Stability (hydrolysis half-life) against pig liver esterase in PBS, RP-18 HPLC; format: in vitro ADME; settings: pH 7.3; 100 units/mL pig liver esterase in PBS; read-out: Half-lives PLE (converted)
# Method: as §3, §4, §5
# [3] = Cytotoxicity: inhibition of CD4+ T-cell (CEM) proliferation; settings: human
# Method: (§6) In addition, a selectivity index (SI) was determined. The selectivity index is the ratio between cell toxicity and […], the ratio between cell toxicity (see Table 4) and EC50 CEM/TK^- (see right column of Table 3).
# (§7) Table 4: Cytotoxicity (CC50 [µM]) and selectivity index (SI) of tested prodrug compounds.
# CD4^+ T-cell (CEM) = assay: as above; settings: ratio between cell toxicity (CC50) and EC50 CEM/TK-
# Method: as §6, §7
# [4] = Stability (hydrolysis half-life) in CEM/0 cell extracts, RP-18 HPLC; format: in vitro ADME; settings: human, read-out: Half-lives CEM T cell extracts (converted)
# Method: as §3, §4, §5
# HIV-2 (ROD) [5] = assay: Inhibition of HIV-2 replication in wild-type CEM/0 cell cultures; format: cell-based; settings: Human immunodeficiency virus 2, CCRF-CEM, read-out: Antiviral activity EC50 HIV-2 (ROD)
# Method: as §1, §2
# HIV-2 (ROD) [6] = assay: Inhibition of HIV-2 replication in thymidine kinase-deficient CEM/TK- cell cultures; format: cell-based; settings: for EC50: Human immunodeficiency virus 2, CEM-TK(-), read-out: Antiviral activity EC50 CEM/TK^- HIV-2 (ROD)
# Method: as §1, §2
# [7] = CD4+ T-lymphocytes (CEM/0), mean ±SD of n=2-3
structure (smiles),measurement,setting,value
CCCCCCCCCCCCCCCCCCP(=O)(OCCCC)OP(=O)(O)OC[C@@H]1C=C[C@H](n2cc(C)c(=O)[nH]c2=O)O1 (some centres unmarked) [No 18],EC50,HIV-1 (HE),31 ± 27 nM
same,half-life,[1],> 125 days
same,half-life,[2],> 150 h
same,CC50,[3]; cem cells,42600 nM
same,Selectivity index (SI),CD4^+ T-cell (CEM),20309
same,half-life,[4],> 40 h
same,EC50,HIV-2 (ROD) [5],16 ± 8.3 nM
same,EC50,HIV-2 (ROD) [6],2.1 ± 3.4 nM
CCCCCCCCCCCCCCCCCCOP(=O)(OCCCC)OP(=O)(O)OC[C@@H]1C=C[C@H](n2cnc3c(NC4CC4)nc(N)nc32)C1 (some centres unmarked) [No 25],EC50,HIV-1 (HE),16 ± 4 nM
same,half-life,[1],2.33 days
same,half-life,[2],41 h
same,CC50,[3]; cem cells,10500 ± 4600 nM
same,Selectivity index (SI),CD4^+ T-cell (CEM),3387
same,half-life,[4],6.7 h
same,EC50,HIV-2 (ROD) [5],8.7 ± 0.4 nM
same,EC50,HIV-2 (ROD) [6],3.1 ± 2.7 nM
CCCCCCCCCCCCCCCCCCP(=O)(OCCCC)OP(=O)(O)OC[C@H]1O[C@@H](n2cc(C)c(=O)[nH]c2=O)C[C@@H]1F (some centres unmarked) [No 22],EC50,HIV-1 (HE),6.3 ± 4.6 nM
same,half-life,[1],> 83.3 days
same,CC50,[3]; cem cells,54300 ± 15200 nM
same,Selectivity index (SI),CD4^+ T-cell (CEM),3620
same,EC50,HIV-2 (ROD) [5],42 ± 13 nM
same,EC50,HIV-2 (ROD) [6],15 ± 4 nM
CCCCCCCCCCCCCCCCCCOP(=O)(OCCCC)OP(=O)(O)OC[C@H]1O[C@@H](n2ccc(=O)[nH]c2=O)C[C@@H]1F (some centres unmarked) [No 23],EC50,HIV-1 (HE),140 ± 71 nM
same,half-life,[1],33.2 days
same,CC50,[3]; cem cells,44800 nM
same,Selectivity index (SI),CD4^+ T-cell (CEM),213
same,EC50,HIV-2 (ROD) [5],150 ± 20 nM
same,EC50,HIV-2 (ROD) [6],210 ± 100 nM
CCCCCCCCCCCCCCCCCCOP(=O)(OCCCC)OP(=O)(O)OC[C@H]1O[C@@H](n2cc(C)c(=O)[nH]c2=O)C[C@@H]1N=[N+]=[N-] (some centres unmarked) [No 19],EC50,HIV-1 (HE),58 ± 50 nM
same,half-life,[1],42.8 days
same,half-life,[2],> 150 h
same,CC50,[3]; cem cells,47800 nM
same,Selectivity index (SI),CD4^+ T-cell (CEM),1112
same,half-life,[4],> 8 h
same,EC50,HIV-2 (ROD) [5],25 ± 9 nM
same,EC50,HIV-2 (ROD) [6],43 ± 48 nM
CCCCCCCCCCCCCCCCCCP(=O)(OCCCC)OP(=O)(O)OC[C@H]1O[C@@H](n2cc(C)c(=O)[nH]c2=O)C[C@@H]1N=[N+]=[N-] (some centres unmarked) [No 20],EC50,HIV-1 (HE),87 ± 55 nM
same,half-life,[1],> 83.3 days
same,half-life,[2],> 150 h
same,CC50,[3]; cem cells,82700 nM
same,Selectivity index (SI),CD4^+ T-cell (CEM),487
same,half-life,[4],> 18 h
same,EC50,HIV-2 (ROD) [5],20 ± 8 nM
same,EC50,HIV-2 (ROD) [6],170 ± 130 nM
CCCCCCCCCCCCCCCCCCOP(=O)(OCCCC)OP(=O)(O)OC[C@@H]1C=C[C@H](n2cc(C)c(=O)[nH]c2=O)O1 (some centres unmarked) [No 16],EC50,HIV-1 (HE),33 ± 22 nM
same,half-life,[1],> 41.7 days
same,half-life,[2],> 150 h
same,CC50,[3]; cem cells,41300 nM
same,half-life,[4],> 18 h
same,EC50,HIV-2 (ROD) [5],4.4 ± 1.3 nM
same,improvement of antiviral activity as compared to the nucleoside analogue d4T,"HIV-2 (ROD) [6]; HIV-2 in CEM/TK- cells, versus d4T",45.400 fold
same,EC50,HIV-2 (ROD) [6],1.1 nM
"Cc1cn([C@H]2C[C@H](N=[N+]=[N-])[C@@H](CO)O2)c(=O)[nH]c1=O [AZT, zidovudine, reference compound]",EC50,HIV-1 (HE); [7],14 ± 8.5 nM
same,CC50,[3],> 100000 nM
same,Selectivity index (SI),CD4^+ T-cell (CEM),>1
same,EC50,HIV-2 (ROD) [5],3.4 ± 2.1 nM
same,EC50,HIV-2 (ROD) [6],> 100000 nM
CCCCCCCCCCCCCCCCCCP(=O)(OCCCC)OP(=O)(O)OC[C@H]1O[C@@H](n2ccc(=O)[nH]c2=O)C[C@@H]1F (some centres unmarked) [No 24],EC50,HIV-1 (HE),57 ± 9 nM
same,half-life,[1],> 83.3 days
same,half-life,[2],> 150 h
same,CC50,[3]; cem cells,59100 ± 20800 nM
same,Selectivity index (SI),CD4^+ T-cell (CEM),1159
same,half-life,[4],> 20 h
same,EC50,HIV-2 (ROD) [5],76 ± 77 nM
same,EC50,HIV-2 (ROD) [6],51 ± 69 nM
"Cc1cn([C@H]2C=C[C@@H](CO)O2)c(=O)[nH]c1=O [d4T, stavudine, reference compound]",EC50,HIV-1 (HE),330 ± 130 nM
same,CC50,[3],> 50000 nM
same,Selectivity index (SI),CD4^+ T-cell (CEM),>1
same,EC50,HIV-2 (ROD) [5],970 ± 500 nM
same,EC50,HIV-2 (ROD) [6],> 50000 nM
CCCCCCCCCCCCCCCCCCP(=O)(OCCCC)OP(=O)(O)OC[C@@H]1C=C[C@H](n2cnc3c(NC4CC4)nc(N)nc32)C1 (some centres unmarked) [No 26],EC50,HIV-1 (HE),34 ± 13 nM
same,half-life,[1],> 41.7 days
same,half-life,[2],> 150 h
same,CC50,[3]; cem cells,> 100000 nM
same,Selectivity index (SI),CD4^+ T-cell (CEM),>100000
same,half-life,[4],> 10 h
same,EC50,HIV-2 (ROD) [5],26 ± 18 nM
same,EC50,HIV-2 (ROD) [6],< 1 nM
CCCCCCCCCCCCCCCCCCOP(=O)(OCC(CC)CCCC)OP(=O)(O)OC[C@@H]1C=C[C@H](n2cc(C)c(=O)[nH]c2=O)O1 (some centres unmarked) [No 17],EC50,HIV-1 (HE),71 ± 52 nM
same,half-life,[1],> 41.7 days
same,CC50,[3]; cem cells,46500 nM
same,Selectivity index (SI),CD4^+ T-cell (CEM),4226
same,EC50,HIV-2 (ROD) [5],45 ± 46 nM
same,EC50,HIV-2 (ROD) [6],11 ± 0.71 nM
"Nc1nc(NC2CC2)c2ncn([C@H]3C=C[C@@H](CO)C3)c2n1 [ABC, abacavir, reference compound]",EC50,HIV-1 (HE); [7],9390 ± 2450 nM
same,CC50,[3],> 100000 nM
same,Selectivity index (SI),CD4^+ T-cell (CEM),>50
same,EC50,HIV-2 (ROD) [5]; [7],3510 ± 3250 nM
same,EC50,HIV-2 (ROD) [6],1980 ± 860 nM
"Cc1cn([C@H]2C[C@H](F)[C@@H](CO)O2)c(=O)[nH]c1=O [FLT, alovudine, reference compound]",EC50,HIV-1 (HE); [7],2.5 ± 2.9 nM
same,CC50,[3],> 100000 nM
same,EC50,HIV-2 (ROD) [5],4.3 ± 1.7 nM
same,EC50,HIV-2 (ROD) [6],> 100000 nM
CCCCCCCCCCCCCCCCCCOP(=O)(OCCCC)OP(=O)(O)OC[C@H]1O[C@@H](n2cc(C)c(=O)[nH]c2=O)C[C@@H]1F (some centres unmarked) [No 21],EC50,HIV-1 (HE),6.7 ± 2.1 nM
same,half-life,[1],> 41.7 days
same,half-life,[2],> 150 h
same,CC50,[3]; cem cells,58600 ± 19400 nM
same,Selectivity index (SI),CD4^+ T-cell (CEM),3447
same,half-life,[4],> 10 h
same,EC50,HIV-2 (ROD) [5],40 ± 28 nM
same,EC50,HIV-2 (ROD) [6],17 ± 16 nM
